Results reported in EP0643964A2 (priority 1993, dated 1995).
“And” between values parts separate entries of the source, which are not always exact repeats. Equal entries are not always repeated. Where two headings read alike, the source gives them in different places.

Key:
[1] = system: canine parvovirus (CPV); format: in vivo, dogs; details: for Viral titers (hemagglutination): Treated group (A): 5 ml 2% lidocaine i.v. twice a day 2 days; for Viral titers of enteric homogenates: Treated group (A), titers obtained on Vero cells
[2] = system: patient with an history of ulcerative colitis; assay: Intravenous treatment of a patient with ulcerative colitis; format: in vivo, human
[3] = system: Giardia lamblia; assay: Patients with malabsorption syndrome (MAS) caused by Giardia lamblia; format: in vivo, human
Description: Volunteer # 1: Type II MAS with positive isolation of Giardia lamblia in duodenal washings and confirmation of the disease by histopathology. […] One month later, patient 1 presented symptoms and signs of recurrence of the disease, with positive isolation of parasites in feces.
Volunteer # 2: with diffuse abdominal pain, loss of body weight and steatorrhea.

[4] = system: herpes zoster; assay: Herpes zoster infection in patients; format: in vivo, human
Description: PATIENT A: who presented a grade II vesical transitional carcinoma that was endoscopically resected. 60 days after resection they presented their first herpetic episode in chest, of 10 days of evolution. 175 days later, a second episode was presented, beginning with hyper and parastesy in the affected area and sudden appearance of vesicles.
PATIENT B: without any apparent disease. 20 and 12 months before they presented two episodes of herpes zoster in the right submammary area, of high intensity, with exquisite pain that made impossible contact with clothes, each episode lasting 3 weeks. At the present time, the patient presented their third episode, preceded by fever (during 48 hours), with crusted vesicles, some of them impetiginized.
PATIENT C: with a breast cancer, under chemo and hormone therapy. After each chemotherapy schedule received, they developed an herpetic episode in the left leg.

[5] = system: Foot-and-mouth disease virus (FMDV); format: in vivo, Swiss mice
[6] = system: Cryptococcus neoformans; assay: Cryptococcoses in experimentally infected mice; format: in vivo, Swiss mice; details: 0.1 ml 0.2% lidocaine i.p. twice a day
Experimental: Animals: 5-7 month old female Swiss mice were used. Experimental schedule: mice received by intraperitoneal route 0.5 ml of a suspension of 10⁷ Cryptococcus neoformans grown in Sabureaud medium.
Two animals of each group (experimental and control groups) were sacrificed at 2, 5 and 10 days post-infection and samples of liver, pancreas, brain, spleen, lung, kidney and bowel were obtained for microscopic examination.

[7] = system: EL4 h-2^b murine T-Lymphoma; assay: In vitro cell growth, EL4 seeded petri dishes (Trypan blue count); format: cell-based; details: for Cells Alive ± STD: 72 hours
Experimental: EL4 h-2^b murine T-Lymphoma (2x10⁶ cells) and P815 H-2^d mastocytoma cells (2x10⁶ cells) (kindly provided by Prof. Gideon Berke at the Weizmann Institute of Sciences, Rehovot, Israel) suspended in 2 ml RPMI-HEPES supplemented with […] and 10% fetal calf serum (FCS) were seeded in every one of 10 petri dishes for each of five groups for the EL4 cells and two groups for the P815 cells. […] Group E dishes were co-cultivated with 0.1 ml RPMI-HEPES alone.
Petri dishes were incubated for 72 hours at 37°C in 5% CO₂ atmosphere. The cells harvested from the petri dishes were then centrifuged, diluted with 1% Trypan blue and counted on a Neubauer chamber.

[8] = system: M3 tumor; assay: M3 transplanted mice, tumor area (lidocaine and epidoxorrubicine); format: in vivo
[9] = Volunteer # 2, day 7 post-treatment
[10] = Mus musculus, 72 h, read-out: I/C: Percentual increment over control growth

CCN(CC)CC(=O)Nc1c(C)cccc1C [lidocaine]
Mortality ([1]; CPV infected dogs, group A (treated), all controls died by 60 hours): no mortality
Viral titers (hemagglutination) ([1]; 12 hrs. after first signs): 0 inverse of the last dilution which agglutinated sheep red cells
Viral titers (hemagglutination) ([1]; 24 hrs.): 16 inverse of the last dilution which agglutinated sheep red cells
Viral titers (hemagglutination) ([1]; 36 hrs.): 320 inverse of the last dilution which agglutinated sheep red cells
Viral titers (hemagglutination) ([1]; 48 hrs.): 320 inverse of the last dilution which agglutinated sheep red cells
Viral titers (hemagglutination) ([1]; 60 hrs.): 160 inverse of the last dilution which agglutinated sheep red cells
Viral titers (hemagglutination) ([1]; 72 hrs.): 40 inverse of the last dilution which agglutinated sheep red cells
Viral titers (hemagglutination) ([1]; 84 hrs.): 40 inverse of the last dilution which agglutinated sheep red cells
Viral titers (hemagglutination) ([1]; 96 hrs.): 40 inverse of the last dilution which agglutinated sheep red cells
Viral titers of enteric homogenates ([1]; 12 hrs.): 2.1 x 10^2 TCID₅₀/ml
Viral titers of enteric homogenates ([1]; 24 hrs.): 0.1 x 10^4 TCID₅₀/ml
Viral titers of enteric homogenates ([1]; 36 hrs.): 0.5 x 10^7 TCID₅₀/ml
Viral titers of enteric homogenates ([1]; 48 hrs.): 0.3 x 10^7 TCID₅₀/ml
Viral titers of enteric homogenates ([1]; 60 hrs.): 2.3 x 10^5 TCID₅₀/ml
Viral titers of enteric homogenates ([1]; 72 hrs.): 6.3 x 10^4 TCID₅₀/ml
Viral titers of enteric homogenates ([1]; 84 hrs.): 5.8 x 10^4 TCID₅₀/ml
Viral titers of enteric homogenates ([1]; 96 hrs.): 6.0 x 10^4 TCID₅₀/ml
Signs of the disease ([1]; group A, after 48 hours from the beginning of treatment): none of the animals showed signs of the disease
Histological aspect of enteric mucosa ([1]; group A, by 72 hours post-treatment): normal histological aspect
Diarrhea ([2]; 4 i.v. doses each 12 hours per week, 4 weeks (5 ml, 2% solution), during the treatment): diarrhea disappeared
Colonoscopy ([2]; 5th week): congestive and edematous mucosa; no erosion could be observed
histopathological diagnosis ([2]; biopsy, 5th week): quiescent ulcerative colitis
D-xylose and Van der Kamer tests ([3]; Volunteer # 1, five days later): normal values
Enteric histopathological examination ([3]; Volunteer # 1, five days later (type II MAS before)): type I MAS
isolation of parasites in feces ([3]; Volunteer # 1, i.v. twice a day 2 days, five days later): negative results
All tests performed ([3]; Volunteer # 1, thirty days later): normalization of enteric function with negative isolation of parasites
D-xylose and Van der Kamer tests [3, 9]: normal
Symptoms [3, 9]: asymptomatic
microscopic examination of enteric mucosa ([3]; Volunteer # 2, day 7 post-treatment (type II MAS before)): type I MAS
Overall status ([3]; Volunteer # 2, day 28 post-treatment): asymptomatic, with gain of weight, normal tests, negative isolation of parasites and a normalization of the microscopic aspect of the enteric mucosa
isolation of parasites ([3]; Volunteer # 2, i.v. twice a day 2 days (5 ml, 2%), day 7 post-treatment): negative results
Evolution of herpetic lesions ([4]; PATIENT C, breast cancer under chemo and hormone therapy): residual hyperesthesia persisted
time to healing (crusts detached / all vesicles healed) ([4]; individual patients (A, B)): ≤ 7 day post-treatment and 10 day post-treatment
time to disappearance of pain ([4]; individual patients (A, B), i.v. twice a day 2 days): ≤ 5 days and 5 days
PRESENCE OF PMNs ([5]; 0.1 ml 0.1% i.p., 8am and 8pm day 1 (group E)): 80-90%
PRESENCE OF PMNs ([5]; 0.1 ml 0.1% i.p., 8am and 8pm on day 1 and day 2 (group F)): 10%
PRESENCE OF PMNs ([5]; 0.1 ml 0.2% i.p., 8am and 8pm day 1 (group C)): 30-40%
PRESENCE OF PMNs ([5]; 0.1 ml 0.2% i.p., 8am day 1 only (group B)): 60-70%
PRESENCE OF PMNs ([5]; 0.1 ml 0.2% i.p., 8am, 8pm day 1 and 8am day 2 (group D)): 30%
PRESENCE OF PMNs ([5]; 0.1 ml 0.4% i.p., 8am day 1 only (group A)): 10%
PRESENCE OF PMNs ([5]; 0.1 ml 0.8% lidocaine i.m. twice a day, 24 hours before FMDV infection): 10%
PRESENCE OF PMNs ([5]; 0.1 ml lidocaine 0.2% i.m. twice a day 2 days (group C)): 80-90%
PRESENCE OF PMNs ([5]; 0.1 ml lidocaine 0.4% i.m. twice a day 2 days (group B)): 60-70%
PRESENCE OF PMNs ([5]; 0.1 ml lidocaine 0.8% i.m. twice a day 2 days (group A)): 30-50%
Microscopic examination of the pancreas ([5]; groups A (lidocaine endovenous 24 h after FMDV) and C (simultaneous), 48 hours post-infection): minimal inflammatory damage with absence of necrosis
Microscopic examination of the pancreas ([5]; groups A and C, 72 hours post-infection): no pancreatic damage could be found
PRESENCE OF PMNs ([5]; lidocaine concentration 0.1%, i.m. twice a day 2 days): 50-60%
PRESENCE OF PMNs ([5]; lidocaine concentration 0.2%, i.m. twice a day 2 days): 20-30%
PRESENCE OF PMNs ([5]; lidocaine concentration 0.3%, i.m. twice a day 2 days): 10-20%
PRESENCE OF PMNs ([5]; lidocaine concentration 0.4%, i.m. twice a day 2 days): 10-20%
PRESENCE OF PMNs ([5]; lidocaine concentration 0.5%, i.m. twice a day 2 days): 10-20%
PRESENCE OF PMNs ([5]; oral route, 0.1 ml of 2% solution twice a day 2 days): 50-100%
PRESENCE OF PMNs ([5]; oral route, 0.2 ml of 2% solution twice a day 2 days): 30-60%
PRESENCE OF PMNs ([5]; oral route, 0.3 ml of 2% solution twice a day 2 days): 30-60%
PRESENCE OF PMNs ([5]; oral route, 0.4 ml of 2% solution twice a day 2 days): 50%
PRESENCE OF PMNs ([5]; oral route, 0.5 ml. of 2% solution twice a day 2 days): 20-30%
Microscopic examination of organs ([6]; 48 hours post-infection): only a generalized vascular congestion
Microscopic examination of organs ([6]; 5 days post-infection): discrete mononuclear cell infiltrate in liver parenchyma and swelling of pancreatic tissue, with absence of inflammatory cells
Microscopic examination of organs ([6]; day 10 pi): scarce granulomas in hepatic parenchyma
Cells Alive ± STD ([7]; Group A, 0.1 ml 2% lidocaine in 2 ml, 2 millions seeded, control 5.92E+06): 5.16E+06 ± 0.04 millions of cells
Dead cells ([7]; Group A, 2% lidocaine, control 2.08E+06): 2.78E+06
Cells Alive ± STD ([7]; Group B, 0.1 ml 0.5% lidocaine): 5.90E+06 ± 0.03 millions of cells
Dead cells ([7]; Group B, 0.5% lidocaine): 1.64E+06
Dead cells ([7]; Group C, 0.05% lidocaine): 1.52E+06
Cells Alive ± STD ([7]; Group C, 0.1 ml 0.05% lidocaine): 5.46E+06 ± 0.01 millions of cells
Dead cells ([7]; Group D, 0.005% lidocaine): 1.12E+06
Cells Alive ± STD ([7]; Group D, 0.1 ml 0.005% lidocaine): 3.48E+06 ± 0.02 millions of cells
inhibition at 0.005 % [7, 10]: 41.2%
inhibition at 0.05 % [7, 10]: 7.77%
inhibition at 0.5 % [7, 10]: 0.34%
inhibition at 2 % [7, 10]: 12.8%
cytotoxicity at 2 % ([7]; Mus musculus, EL4, 72 h, read-out: amount of dead cells): 35%
amount of dead cells ([7]; groups B to E (0.5%, 0.05%, 0.005% lidocaine and control), 4320 min): 20-25%
Area (tumor) ([8]; day 7 p-t (day 0), lidocaine 0.1 ml 0.05% every 7 days, epidoxorrubicine 0.125 ml 0.2% every 7 days, combination: lidocaine 2 days after epidoxorrubicine): 0.46
I/Ø: Percentual increment over tumor in day 0 (day 7 p-t) ([8]; day 10 p-t, saline control 103.47): 18.75%
Area (tumor) ([8]; day 12 p-t, regimens as Table 5 footnotes, saline control 1.56): 0.70
I/Ø: Percentual increment over tumor in day 0 (day 7 p-t) ([8]; day 12 p-t, saline control 245.61): 51.56%
Area (tumor) ([8]; day 14 p-t, regimens as Table 5 footnotes, saline control 2.06): 0.96
I/Ø: Percentual increment over tumor in day 0 (day 7 p-t) ([8]; day 14 p-t, saline control 357.57): 107.81%
Area (tumor) ([8]; day 16 p-t, regimens as Table 5 footnotes, saline control 2.78): 1.11
I/Ø: Percentual increment over tumor in day 0 (day 7 p-t) ([8]; day 16 p-t, saline control 516.74): 142.19%
Area (tumor) ([8]; day 18 p-t, regimens as Table 5 footnotes, saline control 3.61): 1.38
Area (tumor) ([8]; day 21 p-t, regimens as Table 5 footnotes, saline control 4.61): 1.93
Area (tumor) ([8]; day 23 p-t, regimens as Table 5 footnotes, saline control 5.49): 2.90
Area (tumor) ([8]; day 25 p-t, regimens as Table 5 footnotes, saline control 6.24): 3.57
I/Ø: Percentual increment over tumor in day 0 (day 7 p-t) ([8]; day 25 p-t, saline control 1286.33): 676.56%
